Experiments:
human EP4 receptor = target: T1, human EP4 receptor (Homo sapiens, UniProt P35408); assay: Binding ability to human EP receptors ([3H]PGE2 displacement), EP4; conditions: membranes expressing human EP4; [3H]PGE2 1 nM; Cheng-Prusoff; read-out: pKi (M) EP4 (converted)
T1 construct: expressed in transfected cells
Method: (§1) Membranes were prepared from cells stably transfected with human EP receptor cDNA. In brief, cells were cultured to confluency, scraped from culture flasks, and centrifuged (800 g, 8 minutes, 4° C.). Cells were twice washed in ice cold homogenisation buffer containing 10 mMTris-HCl, 1 mM EDTA.2Na, 250 mM sucrose, 1 mM PMSF, 0.3 mM indomethacin, pH 7.4, homogenised and re-centrifuged as before. The supernatant was stored on ice and pellets re-homogenised and re-spun. Supernatants were pooled and centrifuged at 40000 g, 10 minutes, 4° C. Resultant membrane pellets were stored at −80° C. until use. For assay, membranes expressing human EP4, EP3, EP2 or EP1 receptors were incubated in Millipore (MHVBN45) plates containing assay buffer, radiolabelled [^3H]PGE2 and 0.1 to 10 000 nM concentrations of compounds. Incubations were performed at suitable temperatures and for suitable times to allow equilibrium to be reached. Non-specific binding was determined in the presence of 10 uM PGE2. Bound and free radiolabel was separated by vacuum manifold filtration using appropriate wash buffers, and bound radiolabel was determined by scintillation counting. Constituents of each of the buffers are included in table 1 below. […] Raven Press, New York, 2nd edition.

[1] = target: T2, human EP2 prostanoid receptors (Homo sapiens, UniProt P43116); assay: Agonist activity at recombinant human EP2 prostanoid receptors (cAMP in HEK-293 clones); format: cell-based; conditions: for EC50: HEK-293 stably transfected with human EP2, cAMP accumulation, read-out: pEC50 EP2 (converted); for activity (EP2 part): functional classification at EP2
T2 construct: expressed in transfected cells; host or cells: HEK-293
T2 sequence (P43116 whole entry): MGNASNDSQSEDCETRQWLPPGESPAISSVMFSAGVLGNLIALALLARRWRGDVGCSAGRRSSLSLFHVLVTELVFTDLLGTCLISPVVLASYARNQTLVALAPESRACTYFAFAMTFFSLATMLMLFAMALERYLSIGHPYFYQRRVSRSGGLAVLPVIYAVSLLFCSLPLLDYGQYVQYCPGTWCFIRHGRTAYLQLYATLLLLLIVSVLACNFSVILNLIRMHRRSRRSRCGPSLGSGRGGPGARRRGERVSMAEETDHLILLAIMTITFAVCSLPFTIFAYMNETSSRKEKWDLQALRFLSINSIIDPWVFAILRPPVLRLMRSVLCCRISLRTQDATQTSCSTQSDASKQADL
Method: Culture media was Minimal essential media (MEM), supplemented with 10% foetal bovine serum, 100 U/ml penicillin, […] streptomycin, 2.5 μg/ml fungizone, 2mM glutamine. Cells were cultured to confluency (3-4 days) prior to use. Culture media was removed, and confluent cells washed three times in MEM. […] Cells were then stimulated by the addition of 25 μl of PGE2 or agonists prepared in assay buffer. In antagonist studies, cells were pre-incubated with compounds for 30 minutes prior to PGE2-mediated stimulation Plates were incubated for 15 min at 37° C., before termination of the reaction by the addition of 25 μl 1M HCl. The plate was then frozen at -20° C. overnight before determination of cAMP concentration. Stimulated cAMP levels were determined by radioligand displacement binding. In brief, plates were thawed rapidly in a waterbath, and the samples neutralised by the addition of 25 μl 1M NaOH. 30 μl was transferred to Millipore plates pre-coated with 0.5% Polyethylenimine (PEI). Samples were diluted by addition of 90 μl cAMP determination buffer (50 mM Tris, 5 mM EDTA, pH 7.0). […] 15 μl of 2 nM (final concentration) [^3H] cAMP, and 15 μl of 3'5'-cAMP protein kinase (8 μg/well final concentration) prepared in cAMP determination buffer containing 0.1% BSA, were added to each well. Plates were incubated on ice for 2 hours, before bound and free radiolabel were separated by vacuum filtration harvesting using the Millipore vacuum manifold, using ice cold water as the termination buffer. The sealing mat was removed from the Millipore plates, and the filters allowed to dry overnight. 50 μl Microscint 0 (Packard Bioscience) was added to each well, and the plate counted using the Micro-Beta Trilux topcount ^3H program. cAMP accumulation was determined from the standard curve, and values calculated in pmoles cAMP/well. Antagonists affinities (pA2 values) were determined assuming a slope of unity and the […]-Schild equation, where pA2=log [concentration ratio-1]-log[antagonist].

human EP3 receptor = target: T3, human EP3 receptor (Homo sapiens, UniProt P43115); assay: Binding ability to human EP receptors ([3H]PGE2 displacement), EP3; conditions: membranes expressing human EP3; [3H]PGE2 2.5 nM; Cheng-Prusoff; read-out: pKi (M) EP3 (converted)
T3 construct: expressed in transfected cells
T3 sequence (P43115 1-390): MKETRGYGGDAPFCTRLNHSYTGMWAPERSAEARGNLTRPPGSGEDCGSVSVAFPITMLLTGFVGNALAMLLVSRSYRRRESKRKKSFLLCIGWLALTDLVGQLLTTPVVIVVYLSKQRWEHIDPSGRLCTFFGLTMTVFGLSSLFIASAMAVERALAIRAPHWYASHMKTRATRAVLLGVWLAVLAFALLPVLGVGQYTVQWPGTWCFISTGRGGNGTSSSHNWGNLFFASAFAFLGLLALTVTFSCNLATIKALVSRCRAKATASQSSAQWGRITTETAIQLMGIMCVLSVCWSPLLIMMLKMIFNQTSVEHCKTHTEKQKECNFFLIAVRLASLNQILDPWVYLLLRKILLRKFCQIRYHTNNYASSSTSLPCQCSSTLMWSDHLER
Method: as §1

human EP2 receptor = target: T4, human EP2 receptor (Homo sapiens, UniProt P43116); assay: Binding ability to human EP receptors ([3H]PGE2 displacement), EP2; conditions: membranes expressing human EP2; [3H]PGE2 3 nM; Cheng-Prusoff; read-out: pKi (M) EP2 (converted)
T4 construct: expressed in transfected cells
T4 sequence (P43116 whole entry): as the sequence (P43116 whole entry) above
Method: as §1

T1 sequence (P35408 whole entry): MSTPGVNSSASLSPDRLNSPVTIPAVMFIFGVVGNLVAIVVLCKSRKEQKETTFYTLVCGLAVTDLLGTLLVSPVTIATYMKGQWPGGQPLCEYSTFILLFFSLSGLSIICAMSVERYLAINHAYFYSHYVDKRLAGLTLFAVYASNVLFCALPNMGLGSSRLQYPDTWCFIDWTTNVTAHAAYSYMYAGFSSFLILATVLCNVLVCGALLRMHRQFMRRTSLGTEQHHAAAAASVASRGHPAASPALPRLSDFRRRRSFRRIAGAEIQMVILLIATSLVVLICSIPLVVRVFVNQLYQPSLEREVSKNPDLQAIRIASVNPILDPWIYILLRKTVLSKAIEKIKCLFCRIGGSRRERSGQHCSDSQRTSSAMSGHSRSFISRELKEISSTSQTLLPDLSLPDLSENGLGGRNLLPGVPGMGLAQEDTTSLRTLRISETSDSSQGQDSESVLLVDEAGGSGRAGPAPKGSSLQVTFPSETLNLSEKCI

| SMILES | Ki (human EP4 receptor) [M] | EC50 [1] [µM] | activity (EP2 part) [1] | Ki (human EP3 receptor) [M] | Ki (human EP2 receptor) [M] |
| --- | --- | --- | --- | --- | --- |
| O=C(O)Cc1cccc(NC(=O)c2cccc(-c3ccccc3)n2)c1 [Compound 45, {3-[(6-Phenyl-pyridine-2-carbonyl)-amino]-phenyl}-acetic acid] | > 1e-05 | < 0.1 | EP2 agonist | > 1e-05 | < 1e-06 |
| O=C(O)Cc1cccc(NC(=O)c2cc(-c3ccccc3)ccc2F)c1 [Compound 51, {3-[(4-Fluoro-biphenyl-3-carbonyl)-amino]-phenyl}-acetic acid] | > 1e-05 | < 0.1 | EP2 agonist | > 1e-05 | < 1e-06 |
| O=C(O)Cc1cccc(NC(=O)c2csc(-c3ccccc3)n2)c1 [Compound 54, {3-[(2-Phenyl-thiazole-4-carbonyl)-amino]-phenyl}-acetic acid] | > 1e-05 | < 1 | EP2 agonist | > 1e-05 | < 1e-06 |
| O=C(Nc1cccc(CCO)c1)c1ccc(-c2ccccc2)o1 [Compound 74] | > 1e-05 | < 10 | – | > 1e-05 | < 1e-05 |
| O=C(Nc1cccc(Cc2nnn[nH]2)c1)c1ccc(-c2ccc(F)cc2)o1 [Compound 85, 5-(4-Fluoro-phenyl)-furan-2-carboxylic acid [3-(1H-tetrazol-5-ylmethyl)-phenyl]-amide] | > 1e-05 | < 0.1 | EP2 Agonist | > 1e-05 | < 1e-07 |
| O=C(Nc1cccc(Cc2nnn[nH]2)c1)c1ccc(-c2ccc(Cl)cc2)o1 [Compound 87, 5-(4-Chloro-phenyl)-furan-2-carboxylic acid [3-(1H-tetrazol-5-ylmethyl)-phenyl]-amide] | > 1e-05 | < 0.1 | EP2 Agonist | > 1e-05 | < 1e-07 |
| O=C(Nc1cccc(/C=C/c2nnn[nH]2)c1)c1ccc(-c2ccccc2)o1 [Compound 89, 5-Phenyl-furan-2-carboxylic acid {3-[2-(1H-tetrazol-5-yl)-vinyl]-phenyl}-amide] | > 1e-05 | < 0.1 | EP2 Agonist | > 1e-05 | < 1e-07 |
| O=C(Nc1cccc(/C=C/c2nnn[nH]2)c1)c1ccc(-c2cccc(Cl)c2)o1 [Compound 90, 5-(3-Chloro-phenyl)-furan-2-carboxylic acid {3-[2-(1H-tetrazol-5-yl)-vinyl]-phenyl}-amide] | > 1e-05 | < 0.1 | EP2 Agonist | > 1e-05 | < 1e-07 |
| O=C(Nc1cccc(Cc2nnn[nH]2)c1)c1cccc(-c2ccccc2)n1 [Compound 92, 6-Phenyl-pyridine-2-carboxylic acid [3-(1H-tetrazol-5-ylmethyl)-phenyl]-amide] | > 1e-05 | < 0.1 | EP2 Agonist | > 1e-05 | < 1e-06 |
| O=C(Nc1cccc(Cc2nnn[nH]2)c1)c1cccc(-c2ccc(F)cc2)n1 [Compound 93, 6-(4-Fluoro-phenyl)-pyridine-2-carboxylic acid [3-(1H-tetrazol-5ylmethyl)-phenyl]-amide] | > 1e-05 | < 0.1 | EP2 Agonist | > 1e-05 | < 1e-07 |
| O=C(Nc1cccc(Cc2nnn[nH]2)c1)c1cccc(-c2cccc(F)c2)n1 [Compound 94, 6-(3-Fluoro-phenyl)-pyridine-2-carboxylic acid [3-(1H-tetrazol-5ylmethyl)-phenyl]-amide] | > 1e-05 | < 0.1 | EP2 Agonist | > 1e-05 | < 1e-07 |

Next, values leading:

| Ki (human EP4 receptor) [M] | EC50 [1] [µM] | activity (EP2 part) [1] | Ki (human EP3 receptor) [M] | Ki (human EP2 receptor) [M] | SMILES |
| --- | --- | --- | --- | --- | --- |
| > 1e-05 | < 1 | EP2 agonist | > 1e-05 | < 1e-06 | O=C(O)Cc1cccc(NC(=O)c2ccc(-c3ccc4[nH]ccc4c3)o2)c1 [Compound 41] |
| > 1e-05 | < 0.1 | EP2 agonist | > 1e-05 | < 1e-06 | O=C(O)Cc1cccc(NC(=O)c2ccc(-c3ccc(F)cc3)o2)c1 [Compound 42, (3-{[5-(4-Fluoro-phenyl)-furan-2-carbonyl]-amino}-phenyl)-acetic acid] |
| > 1e-05 | < 0.1 | EP2 agonist | > 1e-05 | < 1e-06 | O=C(O)Cc1cccc(NC(=O)c2cc(-c3ccccc3)ccc2Cl)c1 [Compound 44, {3-[(4-Chloro-biphenyl-3-carbonyl)-amino]-phenyl}-acetic acid] |
| > 1e-05 | < 0.1 | EP2 agonist | > 1e-05 | < 1e-06 | O=C(O)Cc1cccc(NC(=O)c2cccc(-c3ccccc3)c2)c1 [Compound 49, {3-[(Biphenyl-3-carbonyl)-amino]-phenyl}-acetic acid] |
| > 1e-05 | < 0.1 | EP2 agonist | > 1e-05 | < 1e-06 | O=C(O)Cc1cccc(NC(=O)c2cc(F)cc(-c3ccccc3)c2)c1 [Compound 52, {3-[(5-fluoro-biphenyl-3-carbonyl)-amino]-phenyl}-acetic acid] |
| > 1e-05 | < 1 | EP2 Agonist | > 1e-05 | < 1e-05 | O=C(O)c1cccc(CNC(=O)c2ccc(-c3ccccc3)o2)c1 [Compound 57, 3-{[(5-Phenyl-furan-2-carbonyl)-amino]-methyl}-benzoic acid] |
| > 1e-05 | < 0.1 | EP2 agonist | > 1e-05 | < 1e-06 | O=C(O)CCc1cccc(NC(=O)c2ccc(-c3ccccc3)o2)c1 [Compound 62, 3-{3-[(5-Phenyl-furan-2-carbonyl)-amino]-phenyl}-propionic acid] |
| > 1e-05 | – | EP2 agonist | > 1e-05 | < 1e-07 | O=C(O)/C=C/c1cccc(NC(=O)c2ccc(-c3ccc(F)cc3)o2)c1 [Compound 71, 3-(3-{[5-(4-Fluoro-phenyl)-furan-2-carbonyl]-amino}-phenyl)-acrylic acid] |
| > 1e-05 | < 0.1 | EP2 Agonist | > 1e-05 | < 1e-07 | O=C(Nc1cccc(Cc2nnn[nH]2)c1)c1ccc(-c2cccc(Cl)c2)o1 [Compound 81, 5-(3-Chloro-phenyl)-furan-2-carboxylic acid [3-(1H-tetrazol-5-ylmethyl)-phenyl]-amide] |
| > 1e-05 | < 0.1 | EP2 Agonist | > 1e-05 | < 1e-07 | O=C(Nc1cccc(Cc2nnn[nH]2)c1)c1ccc(-c2cc(Cl)cc(Cl)c2)o1 [Compound 82, 5-(3,5-Dichloro-phenyl)-furan-2-carboxylic acid [3-(1H-tetrazol-5-ylmethyl)-phenyl]-amide] |

— patent publication US7326732B2, “EP2 receptor agonists” (Pharmagene Laboratories Limited, priority 2004, dated 2008)
